# Measured values reported in US20120079993A1, “B[…]” (UNIVERSITY OF DURHAM, priority 2010, published 2012).
# Tests used:
# mouse or rat = assay: Elevated platform at 75 cm height: falling from the platform and locomotion; type: in vivo; settings: 0.2 mg/kg i.p.; platform at 75 cm height
# Source text: Most mice and rats do jump onto the ground when the platform is raised by 50 cm but not when it is raised by about 75 cm. […] If a manipulation does induce jumping onto or falling on the ground, the experiment cannot be continued with the group of animals displaying this behaviour. Lower the doses if using drugs. One can prevent animals from sliding from the platform by using a ledge (not higher than 0.5 cm height) on each side adjacent to the void space. […] At 100 cm height, the test is more anxiogenic (3) and it is likely to cancel its sensitivity to experimental manipulations. Because of animal welfare regulations, it is advised that a soft carpet (polyethylene foam map about 3-5 cm thick) is laid on the ground beneath the slopes. It is preferable that it is grey or dark unicolor and covers all the visible areas of the floor within the curtain perimeter that surrounds the test apparatus.
# Balb/c mice = assay: Open space anxiety test: elevated platform with steep slopes; settings: amphetamine 5 and 10 mg/kg vs diazepam 0.5, 1 and 3 mg/kg
SMILES,effect on locomotion (mouse or rat),falling from the platform (mouse or rat),number of crossings on the platform (motor activity) in amphetamine treated mice compared to diazepam treated mice (Balb/c mice),number of crossings on the platform (motor activity) in amphetamine treated mice compared to diazepam treated mice (Balb/c mice; listed as Amphetamine)
C[C@]12N[C@H](Cc3ccccc31)c1ccccc12 [MK-801],"induced uncoordinated, unsteady locomotion",falling from the platform,,
CC(N)Cc1ccccc1 (stereo not shown) [amphetamine],,,double,at least two-fold
